Assay results published in the NIST ThermoML archive (doi:10.1021/je4000372).

Assay: xn = mol fraction of the nth substance listed
Conditions: 101 kPa, Liquid; for viscosity: Capillary tube (Ostwald / Ubbelohde) method; for mass density: Pycnometric method

CCCCOCCOCCO [3,6-dioxa-1-decanol] + OCCNCCO
Conditions | mass density, 293.15 K [kg/m3] | mass density, 303.15 K [kg/m3] | mass density, 313.15 K [kg/m3] | mass density, 323.15 K [kg/m3] | mass density, 333.15 K [kg/m3] | viscosity, 293.15 K [mPa·s] | viscosity, 303.15 K [mPa·s] | viscosity, 313.15 K [mPa·s] | viscosity, 323.15 K [mPa·s] | viscosity, 333.15 K [mPa·s]
x1 = 0.03299 | 1088.3 | 1081.8 | 1075.8 | 1069.4 | 1062.8 | 681.3 | 290.7 | 156.2 | 80.04 | 46.73
x1 = 0.06718 | 1080.7 | 1074.2 | 1068 | 1061.5 | 1054.9 | 550.2 | 231.6 | 122.5 | 66.29 | 38.49
x1 = 0.1026 | 1073.2 | 1066.5 | 1060.3 | 1053.6 | 1046.9 | 425.1 | 189.9 | 98.2 | 53.87 | 31.99
x1 = 0.1394 | 1065.8 | 1058.9 | 1052.5 | 1045.7 | 1038.8 | 321.3 | 150.1 | 81.15 | 43.18 | 26.71
x1 = 0.2174 | 1050.9 | 1043.7 | 1037.1 | 1029.9 | 1022.8 | 191.6 | 96.21 | 53.26 | 30.37 | 19.13
x1 = 0.3018 | 1036.3 | 1028.7 | 1021.9 | 1014.5 | 1007.3 | 114.4 | 59.95 | 34.51 | 20.74 | 13.22
x1 = 0.3933 | 1021.9 | 1014 | 1007 | 999.2 | 991.8 | 65.16 | 37.05 | 22.29 | 14.26 | 9.429
x1 = 0.4929 | 1007.7 | 999.5 | 992.3 | 984.2 | 976.7 | 38.57 | 22.76 | 14.83 | 9.416 | 6.995
x1 = 0.6019 | 993.8 | 985.2 | 977.9 | 969.6 | 961.9 | 23.75 | 14.92 | 10.02 | 7.041 | 5.178
x1 = 0.7008 | 982.3 | 973.5 | 966.1 | 957.6 | 949.8 | 15.75 | 10.43 | 7.262 | 5.199 | 3.927
x1 = 0.7558 | 976.4 | 967.5 | 960 | 951.4 | 943.5 | 12.19 | 8.762 | 6.011 | 4.251 | 3.358
x1 = 0.8059 | 971.2 | 962.2 | 954.7 | 946 | 938.1 | 10.43 | 7.305 | 5.293 | 3.759 | 3.035
x1 = 0.8537 | 966.4 | 957.3 | 949.7 | 940.9 | 933 | 8.982 | 6.312 | 4.629 | 3.407 | 2.756
x1 = 0.9031 | 961.6 | 952.4 | 944.8 | 935.9 | 927.9 | 7.858 | 5.501 | 4.032 | 3.028 | 2.463
x1 = 1 | 952.9 | 943.5 | 935.7 | 926.6 | 918.5 | 5.84 | 4.23 | 3.22 | 2.51 | 2
